Patent EP0316212B1 (priority 1987, dated 1989)
Read-outs that look alike come from different tables or passages of the source.

Tests used:
Cellules B = assay: Proliferation of mouse B cells (3H-thymidine incorporation); format: cell-based, souris; settings: for inhibition at 200 µg/mL: B-cell, read-out: pourcentage d'augmentation (+) ou d'inhibition (-) de la prolifération
Description: (§1) Les anticorps utilisés sont des anticorps monoclonaux (AM) naturels (N5-12, N5-17, MO-1, 62-1, D-23) et proviennent d'hybridomes préparés par fusion des cellules de rate de souris n'ayant reçu aucune immunisation au préalable ni aucune stimulation mitogénique, avec le myélome de souris X63-Ag8. Les hybridomes TNP11 et TNP9 proviennent de fusion des cellules de rate de souris immunisées avec du Ficoll-TNP. Ils ont été maintenus en culture dans le milieu RPMI complet contenant 10% de sérum de veau foetal. Les hybridomes ont été injectés à des souris Balb/c préalablement traitées au pristane dans le but d'obtenir des ascites. Les AM ont été utilisés en tant que surnageants de culture ou en tant qu'ascites ou après isolement par chromatographie d'affinité sur une colonne de DNP-Sépharose. Ces anticorps ont été testés par test immunoenzymatique sur différents antigènes immobilisés sur des plaques de polystyrène et révélés par un anticorps anti-Ig de souris couplé à la β-galactosidase.
(§2) Le TNP a été couplé à la sérumalbumine bovine (BSA) par la méthode de Little & Eisen : 1ml de BSA à 20mg/ml dans le tampon carbonate-bicarbonate, 0,1M, pH 9,5, est ajouté à 1ml d'une solution d'acide trinitrobenzène sulfonique à 2 mg/ml dans le même tampon. La réaction est arrêtée après 30 à 120 minutes selon la substitution voulue par élimination de l'excès de réactifs sur échangeur d'ions (Dowex 1 x 4) puis dialyse. Des préparations de BSA substituée avec soit 14 ou 30 molécules de TNP par molécule de BSA (TNP₁₄-BSA ou TNP₃₀-BSA) ont été utilisées.
(§3) Le DNP-Glycine (DNP-Gly) et le DNP-Lysine (DNP-Lys) proviennent des Laboratoires Sigma et sont solubilisés directement dans le milieu de culture.
(§4) Les cellules proviennent de rate ou de thymus de souris. Les souris sont tuées par dislocation cervicale et leur rate ou leur thymus prélevé stérilement sont déposés dans du milieu RPMI. Les cellules sont dissociées, lavées une fois avec du milieu puis les globules rouges sont lysés au chlorure d'ammonium (0,9%) pendant 1 minute à froid puis les cellules sont relavées dans le milieu complet.
(§5) Les sous-populations de cellules B ou T sont ensuite séparées comme suit : • Sous-population T : les cellules T sont obtenues à partir de la population de cellules de la rate par élimination des cellules portant des Ig à leur surface (sous-population B) sur des anticorps anti-Ig de souris immobilisés soit sur des billes magnétiques (Magnogel)® soit sur des boites de Pétri. • Sous-population B : les cellules B sont obtenues après détachement mécanique des supports dur lesquels elles étaient fixées par l'intermédiaire des anticorps anti-Ig (après l'isolement des cellules T), ou après élimination de la sous-population des cellules T de la population totale des cellules de rate par un traitement avec un anticorps anti-cellules T suivi de complément de cobaye. • Thymocytes : les thymocytes sont dissociés dans le RPMI et les cellules isolées sont lavées dans le milieu complet avant d'être mises en culture.
(§6) Le milieu de culture utilisé est du RPMI 1640 contenant du sérum de veau foetal (5%), du pyruvate de sodium (1mM), de la L-glutamine (1mM), du 2-mercaptoethanol (0,05 mM), de la pénicilline (100»g/ml) et de la streptomycine (50»g/ml).
(§7) 2x10⁵ cellules de chaque population cellulaire ou 4x10⁵ de cellules de rate non fractionnées sont distribuées sous un volume final de 200»l dans des boîtes de culture de 96 puits à fond plat en présence ou non des différents stimulateurs (ou mitogènes)(40»g/ml de lipopolysaccharide W Salmonella typhosa 2»g/ml de concanavaline A, ou des surnageants de culture contenant les anticorps monoclonaux à différentes dilutions ou une solution de TNP-BSA à des concentrations finales allant de 200ng à 200»g/ml). Les cultures sont effectuées pendant 48 à 96 heures à 37°C dans une atmosphère de 5% de CO2.
(§8) Six à huit heures avant la fin de la culture, 100»l de surnageant sont prélevés de chaque puits de culture afin d'être testés quant à leur contenu en anticorps. […]

Cellules T = assay: Proliferation of mouse T cells (3H-thymidine incorporation); format: cell-based, souris; settings: for inhibition at 200 µg/mL: T-cell, read-out: pourcentage d'augmentation (+) ou d'inhibition (-) de la prolifération
Description: as §1, §2, §3, §4, §5, §6, §7, §8

Cellules de rate = assay: Proliferation of mouse spleen cells (3H-thymidine incorporation); format: cell-based, souris; settings: for inhibition at 200 µg/mL: read-out: pourcentage d'augmentation (+) ou d'inhibition (-) de la prolifération
Description: as §1, §2, §3, §4, §6, §7
Six à huit heures avant la fin de la culture, 100»l de surnageant sont prélevés de chaque puits de culture afin d'être testés quant à leur contenu en anticorps. 10»l d'une solution de ³H-thymidine (activité spécifique = […]) à 50 »Ci/ml sont ajoutés à la culture qui est ensuite poursuivie. Les cellules de chaque puits sont collectées sur du papier filtre à l'aide d'un collecteur automatique et, après sèchage, les filtres sont comptés dans un liquide scintillant.

[1] = system: virus de la chorioméningite lymphocytaire (CML); assay: organism not typed; format: cell-based
[2] = system: EMCV (Encephalomyocarditis Virus); assay: microbe, parasite or virus in culture; format: cell-based; settings: Cardiovirus A
[3] = system: virus de la chorioméningite lymphocytaire (CML); assay: organism not typed; format: cell-based; settings: L929
[4] = 12 (µg/ml), LPS* (mitogène ajouté après 48 heures)
[5] = 50 (µg/ml), LPS* (mitogène ajouté après 48 heures)
[6] = 12 (µg/ml), conA* (mitogène ajouté après 48 heures)
[7] = 50 (µg/ml), conA* (mitogène ajouté après 48 heures)

For `O=C(O)CNc1ccc([N+](=O)[O-])cc1[N+](=O)[O-]` [DNP-glycine, DNP-Glycine], the “pourcentage d'augmentation (+) ou d'inhibition (-) de la prolifération” value (Cellules B; 3 (µg/ml), LPS* (mitogène ajouté après 48 heures)) was -7%, the “pourcentage d'augmentation (+) ou d'inhibition (-) de la prolifération” value (Cellules B; 3 (µg/ml), M (milieu seul)) was -25% and the “pourcentage d'augmentation (+) ou d'inhibition (-) de la prolifération” value (Cellules B; [4]) was -40%. For the same molecule, the “pourcentage d'augmentation (+) ou d'inhibition (-) de la prolifération” value (Cellules B; 12 (µg/ml), M (milieu seul)) was -50%, the “pourcentage d'augmentation (+) ou d'inhibition (-) de la prolifération” value (Cellules B; [5]) was -64% and the “pourcentage d'augmentation (+) ou d'inhibition (-) de la prolifération” value (Cellules B; 50 (µg/ml), M (milieu seul)) was -60%. For the same molecule, the inhibition at 200 µg/mL (Cellules B; LPS* (mitogène ajouté après 48 heures)) was -80%, the inhibition at 200 µg/mL (Cellules B; M (milieu seul)) was -90% and the “pourcentage d'augmentation (+) ou d'inhibition (-) de la prolifération” value (Cellules T; 0,7 (µg/ml), M (milieu seul)) was “+50%”. The “pourcentage d'augmentation (+) ou d'inhibition (-) de la prolifération” value (Cellules T; 0,7 (µg/ml), conA* (mitogène ajouté après 48 heures)) was 0%, the “pourcentage d'augmentation (+) ou d'inhibition (-) de la prolifération” value (Cellules T; 3 (µg/ml), M (milieu seul)) was 0% and the “pourcentage d'augmentation (+) ou d'inhibition (-) de la prolifération” value (Cellules T; 3 (µg/ml), conA* (mitogène ajouté après 48 heures)) was -5%. For the same molecule, the “pourcentage d'augmentation (+) ou d'inhibition (-) de la prolifération” value (Cellules T; 12 (µg/ml), M (milieu seul)) was 0%, the “pourcentage d'augmentation (+) ou d'inhibition (-) de la prolifération” value (Cellules T; [6]) was -4% and the “pourcentage d'augmentation (+) ou d'inhibition (-) de la prolifération” value (Cellules T; 50 (µg/ml), M (milieu seul)) was “+30%”. The “pourcentage d'augmentation (+) ou d'inhibition (-) de la prolifération” value (Cellules T; [7]) was -15%, the inhibition at 200 µg/mL (Cellules T; M (milieu seul)) was 4% and the inhibition at 200 µg/mL (Cellules T; conA* (mitogène ajouté après 48 heures)) was -45%. It also gave an inhibition at 200 µg/mL (Cellules de rate; LPS* (mitogène ajouté après 48 heures avec le dérivé NP)) of -60%, an inhibition at 200 µg/mL (Cellules de rate; M (milieu seul)) of -64% and an inhibition at 200 µg/mL (Cellules de rate; conA* (mitogène ajouté après 48 heures avec le dérivé NP)) of -50%. The “pourcentage d'augmentation (+) ou d'inhibition (-) de la prolifération” value (Cellules de rate; [4]) was 0%, the “pourcentage d'augmentation (+) ou d'inhibition (-) de la prolifération” value (Cellules de rate; 12 (µg/ml), M (milieu seul)) was -10% and the “pourcentage d'augmentation (+) ou d'inhibition (-) de la prolifération” value (Cellules de rate; [6]) was -30%. For the same molecule, the “pourcentage d'augmentation (+) ou d'inhibition (-) de la prolifération” value (Cellules de rate; [5]) was -20%, the “pourcentage d'augmentation (+) ou d'inhibition (-) de la prolifération” value (Cellules de rate; 50 (µg/ml), M (milieu seul)) was -30% and the “pourcentage d'augmentation (+) ou d'inhibition (-) de la prolifération” value (Cellules de rate; [7]) was 0%. It also gave an inhibition at 10 µg/mL [1] of 10%, an inhibition at 30 µg/mL [1] of 17% and an inhibition at 60 µg/mL [1] of 34%. It also gave an inhibition at 120 µg/mL [1] of 36%, an inhibition at 240 µg/mL [1] of 54% and an inhibition at 480 µg/mL [1] of 63%. For the same molecule, the “inhibition du virus (result in words)” value ([1]; ajouté à la culture cellulaire après l'infection virale) was “peut inhiber le virus même s'il est ajouté à la culture cellulaire après l'infection virale”, the minimal effective concentration ([2]; L929, 24 h, read-out: séroneutralise jusqu'à une concentration de) was 600 µg/mL and the inhibition at 30 µg/mL ([2]; L929, 0,03 mg/ml) was 0%. For the same molecule, the inhibition at 300 µg/mL ([2]; L929, 0,3 mg/ml) was 32%, the inhibition at 600 µg/mL ([2]; L929, 0,6 mg/ml) was 62% and the inhibition at 70 µg/mL ([2]; L929, 0,07 mg/ml) was 0%. The inhibition at 150 µg/mL ([2]; L929, 0,15 mg/ml) was 20%, the inhibition at 1200 µg/mL ([2]; L929, 1,2 mg/ml) was 78% and the inhibition at 10 µg/mL [3] was 25%. It also gave an inhibition at 30 µg/mL [3] of 80%, an inhibition at 60 µg/mL [3] of 15% and an inhibition at 120 µg/mL [3] of 30%. It also gave an inhibition at 240 µg/mL [3] of 25% and an inhibition at 480 µg/mL [3] of 55%.
